According to ChEMBL document CHEMBL1139199 (Bioorg Med Chem Lett, 2007):

Legend:
Dipeptidyl peptidase 9 = Dipeptidyl peptidase 9 (Homo sapiens, UniProt Q86TI2); test: Inhibition of human DPP9 after 15 mins by continuous fluorescent assay
[1] = Oral bioavailability in rat at 2 mg/kg, po; type: ADME, organism-based; settings: in vivo
[2] = Plasma clearance in rat at 1 mg/kg, iv or 2 mg/kg, po; type: ADME, organism-based
Dipeptidyl peptidase 8 = Dipeptidyl peptidase 8 (Homo sapiens, UniProt Q6V1X1); test: Inhibition of human DPP8 after 15 mins by continuous fluorescent assay
[3] = biological target: Voltage-gated inwardly rectifying potassium channel KCNH2 (Homo sapiens, UniProt Q12809); test: Inhibition of cardiac hERG
Dipeptidyl peptidase 2 = Dipeptidyl peptidase 2 (Homo sapiens, UniProt Q9UHL4); test: Inhibition of human recombinant QPP expressed in SF9 cells
[4] = Oral bioavailability in dog at 2 mg/kg, po; type: ADME, organism-based, Canis lupus familiaris; settings: in vivo
Mus musculus = organism: Mus musculus; test: Reduction of blood glucose excursion in mouse by OGTT; type: functional, organism-based
[5] = Plasma clearance in dog at 1 mg/kg, iv or 2 mg/kg, po; type: ADME, organism-based, Canis lupus familiaris

Voltage-gated inwardly rectifying potassium channel KCNH2, sequence (Q12809 whole entry): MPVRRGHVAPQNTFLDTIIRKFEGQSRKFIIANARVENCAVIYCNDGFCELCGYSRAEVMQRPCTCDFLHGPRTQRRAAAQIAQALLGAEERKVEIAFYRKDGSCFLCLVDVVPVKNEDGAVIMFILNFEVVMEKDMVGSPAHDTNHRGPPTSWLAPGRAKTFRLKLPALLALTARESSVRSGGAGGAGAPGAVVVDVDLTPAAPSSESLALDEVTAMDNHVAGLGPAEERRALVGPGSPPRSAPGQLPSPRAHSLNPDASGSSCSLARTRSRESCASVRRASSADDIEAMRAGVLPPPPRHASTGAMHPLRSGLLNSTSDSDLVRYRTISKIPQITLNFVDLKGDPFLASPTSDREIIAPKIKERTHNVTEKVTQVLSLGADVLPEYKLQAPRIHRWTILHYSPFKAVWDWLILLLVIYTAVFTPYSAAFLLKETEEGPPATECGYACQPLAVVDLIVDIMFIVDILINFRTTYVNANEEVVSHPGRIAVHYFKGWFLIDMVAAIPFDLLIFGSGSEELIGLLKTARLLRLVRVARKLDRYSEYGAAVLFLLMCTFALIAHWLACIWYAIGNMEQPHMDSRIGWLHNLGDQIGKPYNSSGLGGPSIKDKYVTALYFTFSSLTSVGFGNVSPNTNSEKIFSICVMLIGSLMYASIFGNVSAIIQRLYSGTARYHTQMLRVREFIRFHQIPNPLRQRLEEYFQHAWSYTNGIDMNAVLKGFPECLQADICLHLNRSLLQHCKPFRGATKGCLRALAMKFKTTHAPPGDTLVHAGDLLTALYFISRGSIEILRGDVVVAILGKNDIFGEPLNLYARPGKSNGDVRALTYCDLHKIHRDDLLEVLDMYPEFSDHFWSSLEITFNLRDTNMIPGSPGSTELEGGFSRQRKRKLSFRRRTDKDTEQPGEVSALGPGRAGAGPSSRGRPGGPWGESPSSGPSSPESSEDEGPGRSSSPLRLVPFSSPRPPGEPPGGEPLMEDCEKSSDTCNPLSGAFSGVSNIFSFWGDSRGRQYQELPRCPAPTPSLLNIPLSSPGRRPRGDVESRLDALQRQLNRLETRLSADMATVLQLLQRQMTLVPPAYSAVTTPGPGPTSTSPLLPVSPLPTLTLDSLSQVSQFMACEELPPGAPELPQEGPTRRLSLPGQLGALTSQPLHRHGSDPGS
Dipeptidyl peptidase 8, sequence (Q6V1X1 whole entry): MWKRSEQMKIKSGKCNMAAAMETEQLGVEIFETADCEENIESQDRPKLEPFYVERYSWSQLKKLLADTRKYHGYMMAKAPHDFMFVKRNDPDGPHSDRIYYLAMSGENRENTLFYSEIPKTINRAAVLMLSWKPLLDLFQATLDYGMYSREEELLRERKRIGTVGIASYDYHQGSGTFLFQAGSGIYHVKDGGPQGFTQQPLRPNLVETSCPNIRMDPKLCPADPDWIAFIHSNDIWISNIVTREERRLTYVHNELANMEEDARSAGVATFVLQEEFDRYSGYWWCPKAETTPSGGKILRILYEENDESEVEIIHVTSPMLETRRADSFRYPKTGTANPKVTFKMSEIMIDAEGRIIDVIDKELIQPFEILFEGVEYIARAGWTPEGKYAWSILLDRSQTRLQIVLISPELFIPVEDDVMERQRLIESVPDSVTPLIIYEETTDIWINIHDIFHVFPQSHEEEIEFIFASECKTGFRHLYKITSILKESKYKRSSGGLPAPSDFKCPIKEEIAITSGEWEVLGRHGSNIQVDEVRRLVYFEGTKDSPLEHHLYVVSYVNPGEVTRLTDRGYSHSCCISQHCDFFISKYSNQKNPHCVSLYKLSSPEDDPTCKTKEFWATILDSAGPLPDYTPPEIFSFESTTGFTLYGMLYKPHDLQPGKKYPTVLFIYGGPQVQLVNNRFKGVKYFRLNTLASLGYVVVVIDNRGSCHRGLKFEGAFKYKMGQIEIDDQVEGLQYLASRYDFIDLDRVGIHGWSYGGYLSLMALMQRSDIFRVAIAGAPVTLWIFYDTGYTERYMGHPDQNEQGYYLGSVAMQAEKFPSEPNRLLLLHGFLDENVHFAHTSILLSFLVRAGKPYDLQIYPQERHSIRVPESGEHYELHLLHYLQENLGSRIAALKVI
Dipeptidyl peptidase 9, sequence (Q86TI2 whole entry): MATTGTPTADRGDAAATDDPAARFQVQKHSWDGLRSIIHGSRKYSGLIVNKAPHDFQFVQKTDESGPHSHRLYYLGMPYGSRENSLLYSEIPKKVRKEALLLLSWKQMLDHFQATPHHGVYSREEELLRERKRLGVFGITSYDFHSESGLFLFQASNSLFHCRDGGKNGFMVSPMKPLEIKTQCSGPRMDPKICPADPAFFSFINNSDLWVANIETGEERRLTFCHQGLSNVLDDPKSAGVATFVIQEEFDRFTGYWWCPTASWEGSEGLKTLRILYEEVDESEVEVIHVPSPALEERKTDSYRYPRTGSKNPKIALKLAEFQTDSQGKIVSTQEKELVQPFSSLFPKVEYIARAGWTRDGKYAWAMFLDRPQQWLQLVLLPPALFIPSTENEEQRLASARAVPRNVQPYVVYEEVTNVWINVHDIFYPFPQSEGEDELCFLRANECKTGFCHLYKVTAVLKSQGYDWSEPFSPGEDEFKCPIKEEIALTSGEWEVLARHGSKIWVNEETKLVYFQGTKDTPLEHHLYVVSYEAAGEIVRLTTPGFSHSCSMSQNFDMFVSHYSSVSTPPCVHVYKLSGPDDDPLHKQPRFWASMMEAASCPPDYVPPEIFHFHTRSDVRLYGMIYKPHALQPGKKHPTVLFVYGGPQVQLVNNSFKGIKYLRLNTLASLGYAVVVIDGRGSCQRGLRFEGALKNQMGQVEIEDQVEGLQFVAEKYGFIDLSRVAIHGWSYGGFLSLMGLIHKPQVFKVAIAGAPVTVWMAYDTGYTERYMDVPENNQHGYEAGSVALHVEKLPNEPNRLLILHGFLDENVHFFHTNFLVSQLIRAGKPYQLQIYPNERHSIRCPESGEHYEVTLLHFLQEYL

| Compound | IC50 (Dipeptidyl peptidase 9) [µM] | bioavailability [1] [%] | clearance [2] [L/h/kg] | IC50 (Dipeptidyl peptidase 8) [µM] | further results |
| --- | --- | --- | --- | --- | --- |
| CN(C)C(=O)[C@@H](C1CCC(N(C)C(=O)c2cccc(F)c2)CC1)[C@H](N)C(=O)N1CC[C@H](F)C1.Cl (some centres undefined) | > 100 | 25 | 1.62 | > 100 | IC50 [3]: > 90 µM |
| CC(=O)N(C)c1ccc([C@H](C)[C@H](N)C(=O)N2CC[C@H](F)C2)cc1 | > 100 |  |  | > 100 |  |
| CC(=O)Nc1ccc([C@H](C(=O)N(C)C)[C@H](N)C(=O)N2CC[C@H](F)C2)cc1 | > 100 |  |  |  | IC50 (Dipeptidyl peptidase 2): > 100 µM |
| CN(C)C(=O)[C@@H](c1ccc(NS(=O)(=O)c2ccccc2)cc1)[C@H](N)C(=O)N1CC[C@H](F)C1 | > 100 |  |  | > 100 |  |
| CC(=O)N(C)c1ccc([C@H](C(=O)N(C)C)[C@H](N)C(=O)N2CC[C@H](F)C2)cc1 | > 100 |  |  | > 100 | IC50 (Dipeptidyl peptidase 2): > 100 µM |
| Cc1ccc(S(=O)(=O)N(C)c2ccc([C@H](C(=O)N(C)C)[C@H](N)C(=O)N3CC[C@H](F)C3)cc2)cc1 | > 100 |  |  | > 100 | IC50 (Dipeptidyl peptidase 2): > 100 µM |
| CN(C)C(=O)[C@@H](C1CCC(NS(=O)(=O)c2ccc(OC(F)(F)F)cc2)CC1)[C@H](N)C(=O)N1CC[C@H](F)C1 (some centres undefined) | > 100 |  |  | > 100 |  |
| C[C@@H](c1ccc(N(C)C(=O)c2ccc(F)cc2)cc1)[C@H](N)C(=O)N1CC[C@H](F)C1 | > 100 |  |  | > 100 |  |
| Cc1ccc(C(=O)N(C)c2ccc([C@H](C(=O)N(C)C)[C@H](N)C(=O)N3CC[C@H](F)C3)cc2)cc1 | > 100 |  |  | > 100 | IC50 (Dipeptidyl peptidase 2): > 100 µM |
| CC(=O)Nc1ccc([C@H](C)[C@H](N)C(=O)N2CC[C@H](F)C2)cc1 | > 100 |  |  |  |  |
| Cl.N[C@H](C(=O)N1CC[C@H](F)C1)C1CCC(NS(=O)(=O)c2ccc(F)cc2F)CC1 (some centres undefined) |  |  | 1.44 |  |  |
| CN(C)C(=O)[C@@H](c1ccc(N(C)C(=O)c2ccc(F)cc2)cc1)[C@H](N)C(=O)N1CC[C@H](F)C1.O=C(O)C(F)(F)F | > 100 | 6 | 4.38 | > 100 | IC50 (Dipeptidyl peptidase 2): > 100 µM; IC50 [3]: > 90 µM |
| CC(=O)N(C)C1CCC([C@H](C)[C@H](N)C(=O)N2CC[C@H](F)C2)CC1.Cl (some centres undefined) | > 100 | 56 | 2.52 |  | bioavailability [4]: 83%; Activity (Mus musculus): Dose-dependent effect; clearance [5]: 0.264 L/h/kg; IC50 [3]: > 90 µM |
| CC(=O)N(C)C1CCC([C@H](C(=O)N(C)C)[C@H](N)C(=O)N2CC[C@H](F)C2)CC1.Cl (some centres undefined) | > 100 | 3 | 1.08 | > 100 |  |
| CN(C)C(=O)[C@@H](C1CCC(NS(=O)(=O)c2ccc(F)cc2F)CC1)[C@H](N)C(=O)N1CC[C@H](F)C1 (some centres undefined) | > 100 |  |  | > 100 |  |
| C[C@@H](C1CCC(N(C)C(=O)c2cccc(F)c2)CC1)[C@H](N)C(=O)N1CC[C@H](F)C1.Cl (some centres undefined) |  | 72 | 2.4 |  |  |
| C[C@@H](C1CCC(N(C)C(=O)C2CC2)CC1)[C@H](N)C(=O)N1CC[C@H](F)C1.Cl (some centres undefined) |  | 46 | 2.94 |  |  |
